# Like-named read-outs stand apart in the source and are kept apart here.
# Columns and labels:
# DU 145 = assay: Cell Titer-Glo viability, Prostate adenocarcinoma; type: cell-based; settings: for CC50: Homo sapiens, read-out: LC50 (the source's name)
# Experimental: (§1) OGM2 kills wide variety of cancer cell types. Cell sensitivity can be classified in to Very Sensitive (LC50<2 μM), Sensitive (LC50=2 to 10 μM), Mildly Sensitive (LC50>10 μM), and Refractory (no killing at 10 μM). The listed established cell were incubated with OGM2 at 2 μM or 10 μM for 72 hours under standard cell culture conditions, and relative cell number was assessed using Cell Titer-Glo Luminescent Cell Viability Assay (Promega™) following the manufacturer's instructions. Luminescence was determined using a Cytation 5 reader and Gen5 software package (BioTek™).
# (§2) Cancer cells, which are very sensitive to killing by OGM2 (LCs <2 μM), with reported mRNA expression of GPR68 and the related proton sensing receptor GPR4. LC50's (concentrations causing 50% lethality) were determined using CellTiter-Glo (Promega™, G7570). Cells were plated in 12-well plates (CELLTREAT Scientific Products, 229112) in 1 ml of DMEM with high glucose, GlutaMAX, HEPES, or RPMI 1640 with Penicillin-Streptomycin (ThermoFisher™, 10564029, 11875119 and 15140122) and 10% FBS. Cells were incubated overnight at 37° C. in 5% CO2. Then 1 mL of fresh media was added with DMSO, OGM, or positive control (Erastin; APExBIO Technology, LLC, B1524) and cells incubated for 3 days. On the third day, all media was removed, cells were rinsed with 1×PBS, PBS was removed, and 200 μL of 1× Passive Lysis Buffer (Promega™, E1941) was added to each well. […]. Subsequently, 20 μL of lysate was added to 100 μL CellTiter-Glo™ reagent on a LUMITRAC 200 plate (Greiner™ bio-one, 82050-726). Plates were briefly spun down and read on a GloMax-Multi Detection System (Promega™).
# (§3) The cells listed in the tables above were incubated with OGM2 at 2 μM or 10 μM for 72 hours under standard cell culture conditions, and relative cell number was assessed using Cell Titer-Glo Luminescent Cell Viability Assay (Promega™) following the manufacturer's instructions. Luminescence was determined using a Cytation 5 reader and Gen5 software package (BioTek™). RNA expression of GPR68 and GPR4 in the corresponding cancer cell lines are listed, according to the publicly available The Human Protein Atlas version 22.0 and Ensembl version 103.38 (see proteinatlas.org). The consensus normalized expression value (“nTPM”=normalize transcript per million) was calculated as the maximum nTPM value for each gene in the two data sources.
# PC-3 = assay: Cell Titer-Glo viability, Prostate adenocarcinoma; type: cell-based; settings: for CC50: Homo sapiens, read-out: LC50 (the source's name)
# Experimental: as §1, §2, §3
# zebrafish embryo = assay: Zebrafish embryo phenotype; type: in vivo; settings: 10 uM
# Experimental: A chemical screen for small molecules that perturb embryonic development (dorsoventral axis) in zebrafish was performed as previously described (see Chen et al., 2009; Hao et al., 2013; Williams et al., 2015; Yu et al., 2008)). Briefly, pairs of WT zebrafish were mated, and fertilized eggs were arrayed in 96-well microtiter plates (5 embryos/well) containing […] E3 water. At 4 hours post fertilization (pf), a small molecule library from Vanderbilt High Throughput Screening Facility was added to each well to a final concentration of 10 μM. Embryos were incubated at 28.5 C until 24 and 48 hours pf, when they were examined for gross morphologic changes indicative of reproducible embryonic defects (dorsalization of the embryonic axis). A total of 30,000 compounds were screened. To discover novel small molecule modulators of embryonic development an unbiased screen of ˜30,000 small molecules was conducted, in which the compounds were assayed for their ability to induce phenotypic changes in the morphology of zebrafish. Further information on these assays can be found in Hao et al., 2013 and Williams et al., 2015. […] This compound was identified based on the phenotype of aberrant pigmentation. Compare FIG. 2B and FIG. 2C, which show a dorsal view of a representative DMSO vehicle control-treated zebrafish embryo at 48 hours pf and a dorsal view of a representative OGM1 (10 uM)-treated zebrafish embryo at 48 hours pf. […] Since GPCRs represent >30% of targets for FDA-approved small molecules and are known to modulate cell migration, activity against 158 GPCRs was assessed based on their chemical structures. GPCRs (158) were tested for agonist and antagonist activity at 10 μM. […] Chemical segregation analysis of zebrafish phenotype was conducted to further identify the inhibitory activity responsible for the zebrafish phenotype. […] The identities of the R groups in Formula A are shown below in Table 5.
# ACVR2A = biological target: T1, ACVR2A (Homo sapiens, UniProt P27037); assay: KinomeScan; type: binding; settings: read-out: % Control
# T1 construct: purchased DiscoveRx
# T1 sequence (P27037 192-485 limits assumed): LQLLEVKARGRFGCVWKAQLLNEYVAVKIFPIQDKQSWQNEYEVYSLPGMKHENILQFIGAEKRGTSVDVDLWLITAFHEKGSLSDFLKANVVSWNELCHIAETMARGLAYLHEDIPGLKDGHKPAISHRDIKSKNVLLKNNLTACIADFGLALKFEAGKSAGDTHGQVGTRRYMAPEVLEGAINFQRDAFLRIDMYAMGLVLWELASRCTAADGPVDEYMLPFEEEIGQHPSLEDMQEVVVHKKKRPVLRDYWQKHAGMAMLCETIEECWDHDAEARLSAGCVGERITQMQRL
# CDK2 = biological target: T2, CDK2 (Homo sapiens, UniProt P24941); assay: KinomeScan; type: binding; settings: read-out: % Control
# T2 construct: purchased DiscoveRx (KinomeScan service)
# LATS1 = biological target: T3, LATS1 (Homo sapiens, UniProt O95835); assay: KinomeScan; type: binding; settings: read-out: % Control
# T3 construct: purchased DiscoveRx
# T3 sequence (O95835 whole entry): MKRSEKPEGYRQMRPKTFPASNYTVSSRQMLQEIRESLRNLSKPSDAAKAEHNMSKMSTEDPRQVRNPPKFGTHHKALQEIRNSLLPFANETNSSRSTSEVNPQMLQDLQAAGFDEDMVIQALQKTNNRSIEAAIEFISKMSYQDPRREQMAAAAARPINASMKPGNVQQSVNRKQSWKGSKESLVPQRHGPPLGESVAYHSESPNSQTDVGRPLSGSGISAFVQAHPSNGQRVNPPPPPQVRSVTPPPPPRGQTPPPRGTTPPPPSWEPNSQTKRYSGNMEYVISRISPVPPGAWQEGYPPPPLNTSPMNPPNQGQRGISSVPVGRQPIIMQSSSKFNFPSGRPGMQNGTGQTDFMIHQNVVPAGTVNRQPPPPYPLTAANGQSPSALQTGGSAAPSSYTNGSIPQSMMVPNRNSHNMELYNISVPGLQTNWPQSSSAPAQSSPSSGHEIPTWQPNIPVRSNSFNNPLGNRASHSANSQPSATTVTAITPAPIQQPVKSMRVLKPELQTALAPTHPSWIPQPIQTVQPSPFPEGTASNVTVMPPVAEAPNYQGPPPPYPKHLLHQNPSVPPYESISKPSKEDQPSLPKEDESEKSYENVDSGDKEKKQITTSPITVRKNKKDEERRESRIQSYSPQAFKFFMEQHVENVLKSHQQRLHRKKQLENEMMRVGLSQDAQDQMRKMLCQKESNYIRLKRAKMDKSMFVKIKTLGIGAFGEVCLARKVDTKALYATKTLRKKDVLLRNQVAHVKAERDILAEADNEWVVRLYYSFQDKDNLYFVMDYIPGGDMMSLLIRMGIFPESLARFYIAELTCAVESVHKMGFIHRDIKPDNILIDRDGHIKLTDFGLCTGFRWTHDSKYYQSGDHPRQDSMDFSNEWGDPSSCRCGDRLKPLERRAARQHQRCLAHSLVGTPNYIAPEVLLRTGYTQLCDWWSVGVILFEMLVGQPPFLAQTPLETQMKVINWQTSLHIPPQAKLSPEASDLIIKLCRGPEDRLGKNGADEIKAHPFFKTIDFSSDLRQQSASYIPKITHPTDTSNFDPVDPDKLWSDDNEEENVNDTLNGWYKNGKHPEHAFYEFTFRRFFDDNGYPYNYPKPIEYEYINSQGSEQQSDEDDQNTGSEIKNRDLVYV
# ZAK = biological target: T4, ZAK (Homo sapiens, UniProt Q9NYL2); assay: KinomeScan; type: binding; settings: read-out: % Control
# T4 construct: purchased DiscoveRx
# T4 sequence (Q9NYL2 whole entry): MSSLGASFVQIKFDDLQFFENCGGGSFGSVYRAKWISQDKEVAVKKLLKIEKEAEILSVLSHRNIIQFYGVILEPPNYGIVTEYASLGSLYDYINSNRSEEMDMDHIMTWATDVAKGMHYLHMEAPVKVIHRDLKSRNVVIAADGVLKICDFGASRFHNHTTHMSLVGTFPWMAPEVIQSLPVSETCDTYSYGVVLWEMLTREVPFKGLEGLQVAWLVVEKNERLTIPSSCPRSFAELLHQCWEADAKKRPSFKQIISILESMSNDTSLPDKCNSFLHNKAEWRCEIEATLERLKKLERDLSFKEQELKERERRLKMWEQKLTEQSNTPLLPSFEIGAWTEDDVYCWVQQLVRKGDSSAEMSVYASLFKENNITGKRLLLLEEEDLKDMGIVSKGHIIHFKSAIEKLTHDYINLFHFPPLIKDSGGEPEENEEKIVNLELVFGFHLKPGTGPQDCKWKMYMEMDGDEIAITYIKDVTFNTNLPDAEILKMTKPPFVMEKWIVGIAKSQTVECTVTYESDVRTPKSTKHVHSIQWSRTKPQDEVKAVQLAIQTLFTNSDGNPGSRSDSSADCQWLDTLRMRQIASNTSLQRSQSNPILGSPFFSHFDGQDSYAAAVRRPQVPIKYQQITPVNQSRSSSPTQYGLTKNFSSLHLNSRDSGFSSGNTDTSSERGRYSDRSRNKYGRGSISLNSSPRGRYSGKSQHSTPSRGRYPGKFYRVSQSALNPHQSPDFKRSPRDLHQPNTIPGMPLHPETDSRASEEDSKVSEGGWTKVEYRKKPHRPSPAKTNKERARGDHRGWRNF
# CCR3 = biological target: T5, CCR3 (Homo sapiens, UniProt P51677); assay: GPCR Profiler; type: cell-based
# T5 construct: host or cells: Chem-1 cells with Gα15
# T5 sequence (P51677 whole entry, species assumed): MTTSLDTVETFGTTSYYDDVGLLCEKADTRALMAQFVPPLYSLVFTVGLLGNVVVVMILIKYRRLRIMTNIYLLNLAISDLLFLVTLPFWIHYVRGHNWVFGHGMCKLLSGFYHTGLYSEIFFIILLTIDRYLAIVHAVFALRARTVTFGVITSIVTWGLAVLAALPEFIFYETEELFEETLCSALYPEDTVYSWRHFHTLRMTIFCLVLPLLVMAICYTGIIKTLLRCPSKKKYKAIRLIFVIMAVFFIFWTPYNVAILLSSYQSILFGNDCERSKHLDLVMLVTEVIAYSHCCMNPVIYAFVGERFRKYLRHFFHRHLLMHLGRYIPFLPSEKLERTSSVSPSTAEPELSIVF
# CRF1 = biological target: T6, CRF1 (Homo sapiens, UniProt P34998); assay: GPCR Profiler; type: cell-based
# T6 construct: host or cells: Chem-1 cells with Gα15
# T6 sequence (P34998 24-415): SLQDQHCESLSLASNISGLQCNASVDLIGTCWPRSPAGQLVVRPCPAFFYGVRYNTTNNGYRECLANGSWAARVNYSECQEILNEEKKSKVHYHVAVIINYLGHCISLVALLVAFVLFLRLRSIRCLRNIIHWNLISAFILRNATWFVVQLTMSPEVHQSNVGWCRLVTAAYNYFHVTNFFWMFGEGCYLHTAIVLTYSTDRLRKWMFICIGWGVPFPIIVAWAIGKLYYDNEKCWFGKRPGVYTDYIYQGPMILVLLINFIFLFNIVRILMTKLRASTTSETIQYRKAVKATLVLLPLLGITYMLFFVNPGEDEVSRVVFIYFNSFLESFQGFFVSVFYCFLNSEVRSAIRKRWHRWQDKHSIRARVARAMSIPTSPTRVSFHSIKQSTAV
# CX3CR1 = biological target: T7, CX3CR1 (Homo sapiens, UniProt P49238); assay: GPCR Profiler; type: cell-based
# T7 construct: host or cells: Chem-1 cells with Gα15
# T7 sequence (P49238 whole entry, species assumed): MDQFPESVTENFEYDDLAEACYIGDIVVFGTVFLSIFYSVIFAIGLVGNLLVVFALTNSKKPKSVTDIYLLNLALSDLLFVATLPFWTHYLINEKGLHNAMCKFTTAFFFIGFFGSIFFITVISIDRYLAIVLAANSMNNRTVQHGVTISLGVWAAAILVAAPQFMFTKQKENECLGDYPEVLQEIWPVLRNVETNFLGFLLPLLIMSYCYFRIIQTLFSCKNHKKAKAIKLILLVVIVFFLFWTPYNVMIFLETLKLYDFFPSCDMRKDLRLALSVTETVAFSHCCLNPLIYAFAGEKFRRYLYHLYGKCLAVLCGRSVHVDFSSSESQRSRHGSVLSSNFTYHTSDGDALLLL
# S1P5 = biological target: T8, S1P5 (Homo sapiens, UniProt Q9H228); assay: GPCR Profiler; type: cell-based
# T8 construct: host or cells: Chem-1 cells with Gα15
# T8 sequence (Q9H228 whole entry, species assumed): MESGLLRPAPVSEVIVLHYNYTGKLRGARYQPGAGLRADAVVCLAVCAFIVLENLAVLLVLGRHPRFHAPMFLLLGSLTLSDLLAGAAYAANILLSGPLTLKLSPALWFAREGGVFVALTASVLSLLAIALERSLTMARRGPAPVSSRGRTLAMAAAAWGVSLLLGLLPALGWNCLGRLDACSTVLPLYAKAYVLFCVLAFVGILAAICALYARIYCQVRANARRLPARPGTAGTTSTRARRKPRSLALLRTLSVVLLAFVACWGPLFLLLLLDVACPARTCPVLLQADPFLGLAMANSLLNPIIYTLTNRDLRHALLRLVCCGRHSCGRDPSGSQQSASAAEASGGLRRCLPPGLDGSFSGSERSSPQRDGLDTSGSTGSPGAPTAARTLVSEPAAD
# Thrombin Activated PARs = assay: GPCR Profiler; type: cell-based
# Y4 = biological target: T9, Y4 (Homo sapiens, UniProt P50391); assay: GPCR Profiler; type: cell-based
# T9 construct: host or cells: Chem-1 cells expressing Galpha15
# T9 sequence (P50391 whole entry): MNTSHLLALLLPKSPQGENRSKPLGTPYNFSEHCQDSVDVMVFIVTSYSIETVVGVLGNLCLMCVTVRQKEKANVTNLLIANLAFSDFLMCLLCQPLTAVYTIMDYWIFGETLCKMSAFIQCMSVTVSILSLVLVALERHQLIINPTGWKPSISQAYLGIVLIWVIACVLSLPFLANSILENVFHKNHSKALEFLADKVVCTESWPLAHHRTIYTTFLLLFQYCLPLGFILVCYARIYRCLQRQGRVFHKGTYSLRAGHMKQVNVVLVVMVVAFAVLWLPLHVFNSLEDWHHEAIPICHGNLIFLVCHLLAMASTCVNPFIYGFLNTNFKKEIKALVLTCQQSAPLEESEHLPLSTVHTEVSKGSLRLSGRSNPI
structure (smiles),measurement,setting,value
CCc1ccc2c(c1)C1(NN=C(c3ccccc3)S1)C(=O)N2 (stereo not shown) [OGM2],% Survival 2 μM OGM,DU 145; 72 hours,44.2%
same,% Survival 10 μM OGM,DU 145; 72 hours,22.2%
same,% Survival 2 μM OGM,"DU 145; DU 145 cells, 2 μM, 72 hours, Cell Titer-Glo",44.2%
same,% Survival 10 μM OGM,"DU 145; DU 145 cells, 10 μM, 72 hours, Cell Titer-Glo",22.2%
same,CC50,"DU 145; DU-145, 72 hours",< 2 µM
same,CC50,"DU 145; DU 145 cells, concentration causing 50% lethality",< 2 µM
same,Class,PC-3,Mildly
same,% Survival 2 μM OGM,PC-3; 72 hours,101.3%
same,% Survival 10 μM OGM,PC-3; 72 hours,74.5%
same,CC50,"PC-3; PC-3, 72 hours",> 10 µM
same,CC50,"PC-3; PC-3 cells, concentration causing 50% lethality",> 10 µM
same,% Survival 2 μM OGM,"PC-3; PC-3 cells, 2 μM, 72 hours, Cell Titer-Glo",101.3%
same,% Survival 10 μM OGM,"PC-3; PC-3 cells, 10 μM, 72 hours, Cell Titer-Glo",74.5%
same,Class,PC-3; Table 13,Low
"CCc1ccc2c(c1)C1(NN=C(c3cccc4ccccc34)S1)C(=O)N2 (stereo not shown) [OGM1, 5-ethyl-5′-naphthalen-1-ylspiro[1H-indole-3,2′-3H-1,3,4-thiadiazole]-2-one]",phenotypes induced,zebrafish embryo,"reproducibly induced ventral curvature, wavy notochord, shortened body axis, craniofacial defects, and loss of retinal iridophores"
same,remaining binding at 10 µM,ACVR2A,100%
same,remaining binding at 10 µM,CDK2,100%
same,remaining binding at 10 µM,LATS1,100%
same,remaining binding at 10 µM,ZAK,100%
same,Antagonism,CCR3; 10 uM,−9.9
same,Agonism,CCR3; 12.5 uM,0.8
same,Antagonism,CRF1; 10 uM,4.6
same,Agonism,CRF1; 12.5 uM,−0.1
same,Antagonism,CX3CR1; 10 uM,−12.1
same,Agonism,CX3CR1; 12.5 uM,0.3
same,Antagonism,S1P5; 10 uM,0.9
same,Agonism,S1P5; 12.5 uM,1.8
same,Antagonism,Thrombin Activated PARs; 10 uM,3.2
same,Agonism,Thrombin Activated PARs; 12.5 uM,1
same,Antagonism,Y4; 10 uM,−5.5
same,Agonism,Y4; 12.5 uM,−0.2
